{"source": "patent US11260050B2", "about": "“Combination of cotinine plus antioxidant for treatment-resistant depression and correction of astrocytes functional deficit induced by depression and other neuropathological” (UNIVERSIDAD SAN SEBASTIAN, priority 2017, dated 2022)", "key": {"conditioned mice [1]": {"tested_on": "conditioned mice", "test": "Forced swim test after fear conditioning and extinction (Example 4)", "type": "in vivo, Mice C57BL/6", "conditions": "FC mice after extinction; Tukey: cotinine p<0.001, combination p<0.005, sertraline p<0.05", "description": "(§1) Three-month-old mice (n=5-6/condition) were weighed and assigned to treatment groups. Mice were treated with vehicle or drugs, starting two h after fear conditioning and daily after behavioral testing until euthanasia. Mice received daily treatments with 1. PBS (phosphate buffer saline, pH 7.4) via intranasal; 2. Cotinine (10 mg/ml) dissolved in PBS via intranasal (IN Cot, 24 μl); 3. Krill oil dissolved in PBS, via intranasal (48 mg/ml, 24 μl); 4. Cotinine (10 mg/ml) plus krill oil dissolved in PBS, via intranasal (48 mg/ml, 24 μl); 5.\n(§2) For intranasal delivery, mice were hand-restrained, placed in a supine position, and given two 12 μl drops of cotinine solutions, or PBS, into both nares consecutively. Mice were given an extra 12 μl treatment drop if the subject forcibly ejected or sneezed out the solution. Mice were held supine for 5-10 seconds after delivery to ensure that all fluid was inhaled."}, "conditioned mice [2]": {"tested_on": "conditioned mice", "test": "Fear retention and extinction tests after fear conditioning (Example 4)", "type": "in vivo, Mice C57BL/6", "description": "as §1, §2\nContextual fear conditioning was performed as described. The conditioning chamber used (33 cm×20 cm×22 cm) is surrounded by a sound-attenuating box with a camera connected to freeze frame software (MED Associates Inc.) and equipped to provide a background white noise (72 dB). The conditioning chamber contains in one side a speaker and in the opposite side has a 24V light, and a 36-bar insulated shock grid floor. To perform this test, each mouse was placed in the conditioning chamber for 2 min before the onset of a discrete tone (a sound that will last 30 seconds (sec) at 2,800 Hz and 85 dB). In the last two seconds of this tone, mice received a foot shock of 1 mA, kept in the conditioning chamber for 2 min and returned to their home cages. Between trials, the chamber was sanitized with 70% ethanol and dried. Freezing behavior was defined as the absence of all movement except the one needed for breathing was assessed using the FreezeView Software (MED Associates Inc.).\nFear retention and extinction experiments were performed as described, using the same cohorts of mice and reproduced in two separate experiments. To assess fear retention and mice underwent re-exposure to the conditioning chamber in the absence of an unconditioned stimulus (shock or auditory cues) for 3 minutes (min) in daily extinction trials. Freezing behavior was measured using the ANY-Maze® software (Stoelting CO, USA). The extinction trials were continued until the decrease in freezing behavior reached a stable level."}}, "data": [{"smiles": "CN[C@H]1CC[C@@H](c2ccc(Cl)c(Cl)c2)c2ccccc21.Cl", "note": "[Sertraline, (1S,4S)-4-(3,4-dichlorophenyl)-1,2,3,4-tetrahydro-N-methyl-1-naphthalenamine hydrochloride, reference compound]", "values": [{"measurement": "depressive-like behavior (immobility) in the forced swim test", "setting": "conditioned mice [1]", "result": "significantly decreased depressive-like behavior"}, {"measurement": "freezing behavior during daily extinction trials (speed of fear extinction)", "setting": "conditioned mice [2]; 5 days of extinction, daily treatment", "result": "overall slower extinction of fear than controls"}, {"measurement": "fear reaction (freezing) in the retention test", "setting": "conditioned mice [2]; treatment started 2 h after FC, IN cotinine 10 mg/ml, IN KO 48 mg/ml, oral sertraline 3 mg/kg", "result": "no significant effects"}]}]}
